Where “and” joins values, the source holds several entries; their conditions need not be identical. Identical values can stand only once.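 Test compounds were applied to cells in 96-well plates for 48 hours at 5 doses. GI50 marks 50% less growth. TGI marks complete inhibition of growth.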
Experiments:
Assay in all cases: NCI anticancer screen, dose series, 48 h
OVCAR-5 ovarian = system: OVCAR-5 ovarian
SNB-19 CNS = system: SNB-19 CNS
A498 renal = system: A498 renal
SW-620 colon = system: SW-620 colon
TK-10 renal = system: TK-10 renal
A549 NSCLC = system: A549 NSCLC
SK-MEL-2 melanoma = system: SK-MEL-2 melanoma
HOP-92 NSCLC = system: HOP-92 NSCLC
UACC-257 melanoma = system: UACC-257 melanoma
COLO 205 colon = system: COLO 205 colon

| Structure (SMILES) | GI50 (OVCAR-5 ovarian) | TGI (OVCAR-5 ovarian) [µM] | GI50 (SNB-19 CNS) [µM] | TGI (SNB-19 CNS) [µM] | GI50 (A498 renal) | TGI (A498 renal) | GI50 (SW-620 colon) [µM] | TGI (SW-620 colon) [µM] | GI50 (TK-10 renal) [µM] | TGI (TK-10 renal) [µM] | GI50 (A549 NSCLC) [µM] | TGI (A549 NSCLC) [µM] | GI50 (SK-MEL-2 melanoma) | TGI (SK-MEL-2 melanoma) [µM] | GI50 (HOP-92 NSCLC) [µM] | TGI (HOP-92 NSCLC) [µM] | GI50 (UACC-257 melanoma) [µM] | TGI (UACC-257 melanoma) [µM] | GI50 (COLO 205 colon) [µM] | TGI (COLO 205 colon) |
| --- | --- | --- | --- | --- | --- | --- | --- | --- | --- | --- | --- | --- | --- | --- | --- | --- | --- | --- | --- | --- |
| COc1ccc2c(c1)OC(N(C(C)=O)C(C)=O)=C(C#N)C2c1ccc(F)cc1 (stereo not given) | 7.65 µM | > 100 | 2.91 | > 100 | 2.43 µM | > 100 µM | 0.553 | > 100 | 17.5 | > 100 | 4.45 | > 100 | 1.08 µM | > 100 | 10.9 | 90.4 | 23 | > 100 | 2.2 | 7.26 µM |
| Nc1nc2c(c(=O)[nH]1)CN(c1ccc(S(N)(=O)=O)cc1)CN2 |  | > 100 |  | > 100 |  | > 100 µM |  | > 100 |  | > 100 |  | > 100 |  | > 100 |  | > 100 |  | > 100 |  | > 100 µM |
| O=C(CN1CCN(c2ccccc2)CC1)N1CCc2c([nH]c3ccccc23)C1c1cccnc1 (stereo not given) |  | > 100 |  | > 100 |  | > 100 µM |  | > 100 |  | > 45.7 |  | > 100 |  | > 100 |  | > 66.3 |  | > 100 |  | > 100 µM |
| COc1ccc(NC(=O)c2cc(OC)c(OC)c(OC)c2)cc1 |  | > 100 |  | > 100 |  | > 100 µM |  | > 100 |  | > 100 |  | > 100 |  | 65.2 |  | > 100 |  | > 100 |  | > 71.9 µM |
| C[C@@H]1COCCN1c1cc(C2(S(C)(=N)=O)CC2)nc(-c2ccnc3[nH]ccc23)n1 (stereo not given in full) | 3.3 µM | 16.7 | 3.92 | 42.2 | 0.146 µM | 1.69 µM | 8.36 | 95.1 | 8.51 | 51 | 3.35 | 35.2 | 4.59 µM | 18.9 | 2.49 | 31.6 | 11.7 | 52.7 | 11.7 | 29 µM |
| CN(C)CCOc1ccc2c(c1)C/C(=C/c1ncc([N+](=O)[O-])n1C)C2=O |  | 14.8 |  | 15.3 |  | 5.54 µM |  | 18.2 |  | 10.9 |  | 7.74 |  | 3.58 |  | 5.77 |  | 14.7 |  | 3.33 µM |
| CC[C@H](CC#N)OC(=O)N[C@@H](C)c1cccc(NC(=O)Nc2ccc(-c3cnco3)c(OC)c2)c1 | 0.623 µM | > 84.5 | 0.125 | > 100 | 0.138 µM | 20.8 µM | 0.0229 | 40.6 | 0.171 | 28.3 | 0.0336 | 20.9 | 4.05 µM | 34.8 | 2.46 | 44.7 | 0.0922 | 23.1 | 0.0203 | 18 µM |
| Cc1cccc(C(C)C)c1NC(=O)C(=O)CC(=O)c1c(C)n([O-])c2ccccc2[n+]1=O |  | > 100 |  | > 100 |  | > 100 µM |  | > 100 |  | > 100 |  | > 100 |  | 98.1 |  | > 100 |  | 48 |  | 88.3 µM |
| CCc1cc(O)c(Cl)c(C)c1Cl |  | 52.2 |  | 95.6 |  | 28.2 µM |  | 43.6 |  | 35.9 |  | > 100 |  | > 100 |  | 33.7 |  | 35.6 |  | 41.4 µM |
| CN(C)C(=S)N=Nc1c(O)[nH]c2ccccc12 | 1.49 µM | 21 | 0.546 | 15 | 6.28 µM | 20.4 µM | 0.576 | 21.6 | 0.721 | 14.7 | 0.465 | 18.8 | 0.8 µM | 19.8 | 0.761 | 15.9 | 2.31 | 17 | 0.356 | 3.56 µM |
| NNC(=O)CCC(=O)NC1C2CC3CC(C2)CC1C3 (stereo not given) |  | > 100 |  | > 100 |  | > 100 µM |  | > 100 |  | > 100 |  | > 100 |  | > 100 |  | > 100 |  | > 100 |  | > 100 µM |
| COc1cc([C@@H]2c3cc4c(cc3[C@@H](NC(=O)c3ccccc3)C3COC(=O)[C@@H]32)OCO4)cc(OC)c1O (stereo not given in full) |  | > 100 |  | > 100 |  | 27 µM |  | > 100 |  | 92.5 |  | 16.6 |  | 57.3 |  | 87.9 |  | 48.1 |  | 92.8 µM |
| CCCCN(Cc1ccc(F)cc1)c1ccc(CO)c(Cl)c1 | 0.531 µM | 2.9 | 14.3 | 27.7 | 0.0543 µM | 0.208 µM | 6.11 | 20.7 | 0.319 | 1.89 | 7.38 | 21.6 | 14.5 µM | 29.9 | 3.32 | 19.5 | 0.862 | 3.75 | 14 | 27.2 µM |
| CC(=O)O[C@@H]1CC2C(C)(C)CCCC2(C)C2=C1C(=O)C(C(C)C)=CC2=O (stereo not given in full) | 2.26 µM | 5.32 | 0.87 | > 100 | 1.06 µM | 2.35 µM | 1.19 | 3.28 | 2.51 | > 100 | 1.43 | 5.83 | 0.95 µM | 3.53 | 0.652 | 2.1 | 1.55 | 4.29 | 1.88 | 4.11 µM |
| CC(=O)c1cc([N+](=O)[O-])ccc1OCC(=O)O |  | > 100 |  | > 100 |  | > 100 µM |  | > 100 |  | > 100 |  | > 100 |  | > 100 |  | > 100 |  | > 100 |  | > 100 µM |
| CCOc1ccc(NCc2cc(OC)c(OC)c(OC)c2)cc1 | 10.5 µM and 4.43 µM | > 93.8 | 4.9 | > 100 | 1.05 µM and 4.61 µM | > 48 µM and 59.5 µM |  | > 100 | > 100 | > 100 |  | > 100 | 2.22 µM and 0.429 µM | > 100 |  | > 91.6 |  | > 100 |  | 2.46 µM and 5.04 µM |
| COc1cc(-c2cn(-c3ccc(Cl)cc3)c(C)c2C(=O)C(F)(F)F)cc(OC)c1OC | > 100 µM | > 100 | > 100 | > 100 | 27.2 µM | > 100 µM | > 100 | > 100 | > 100 | > 100 | 17.9 | > 100 | > 100 µM | > 100 | 2.27 | 56 | 14.1 | > 100 | > 100 | > 100 µM |
| CCCCCCCCCCCCCC(=O)CBr |  | 49.8 |  | 33.7 |  | 35.5 µM |  | 30.2 |  | 29.7 |  | 50.7 |  | 26.3 |  | 6.43 |  | 17.7 |  | 30.1 µM |
| Cc1cc2c3ccccc3n(C)c2c2c1C(=O)C=CC2=O |  | 35.4 |  | 73 |  | 35.5 µM |  | 32.8 |  | 31.2 |  | > 77.8 |  | 37.7 |  | 25 |  | 18.7 |  | 33.6 µM |

— PubChem BioAssay (NCI)
